Activity calls are given as the source filed them. The calls are words filed in the database; no cut-off is given here.
Experiments:
[1] = molecular target: TRAF2 and NCK-interacting protein kinase (Homo sapiens, UniProt Q9UKE5); experiment: Inhibition of human recombinant TNIK (1 to 367 residues) using RLGRDKYKTLRQIRQ as substrate incubated for 40 mins in presence of Mg/ATP mix by [gamma p33]-ATP based radiometric scintillation counting method
[2] = tested on: HCT-116; experiment: Antiproliferative activity against human HCT-116 cells assessed as inhibition of cell proliferation incubated for 72 hrs by MTT assay; format: functional, cell-based; settings: HCT-116, 72 h
[3] = tested on: HCT-116; experiment: Downregulation of nuclear TCF-4 protein expression in human HCT-116 cells at 10 to 40 uM incubated for 48 hrs by western blot analysis; format: functional, cell-based; settings: dose 10-40 µM, DDE = dose-dependent effect
[4] = tested on: HCT-116; experiment: Downregulation of Axin2 protein expression in human HCT-116 cells at 10 to 40 uM incubated for 48 hrs by western blot analysis; format: functional, cell-based; settings: dose 10-40 µM
[5] = tested on: HCT-116; experiment: Downregulation of nuclear beta-catenin protein expression in human HCT-116 cells at 10 to 40 uM incubated for 48 hrs by western blot analysis; format: functional, cell-based; settings: dose 10-40 µM, DDE = dose-dependent effect
[6] = tested on: HCT-116; experiment: Inhibition of cell migration in human HCT-116 cells at 1 uM incubated for 24 to 48 hrs by wound-closure assay; format: functional, cell-based; settings: time 24-48 hrs
[7] = tested on: HCT-116; experiment: Downregulation of c-Myc protein expression in human HCT-116 cells at 10 to 40 uM incubated for 48 hrs by western blot analysis; format: functional, cell-based; settings: dose 10-40 µM
[8] = molecular target: Vascular endothelial growth factor receptor 3 (Homo sapiens) (UniProt P35916); experiment: Inhibition of human recombinant FLT4 (800 to end residues) using GGEEEEYFELVKKKK as substrate incubated for 40 mins in presence of [gamma-33P]-ATP by radiometric based scintillation counter assay
Chain of Vascular endothelial growth factor receptor 3 (Homo sapiens) (P35916 whole entry): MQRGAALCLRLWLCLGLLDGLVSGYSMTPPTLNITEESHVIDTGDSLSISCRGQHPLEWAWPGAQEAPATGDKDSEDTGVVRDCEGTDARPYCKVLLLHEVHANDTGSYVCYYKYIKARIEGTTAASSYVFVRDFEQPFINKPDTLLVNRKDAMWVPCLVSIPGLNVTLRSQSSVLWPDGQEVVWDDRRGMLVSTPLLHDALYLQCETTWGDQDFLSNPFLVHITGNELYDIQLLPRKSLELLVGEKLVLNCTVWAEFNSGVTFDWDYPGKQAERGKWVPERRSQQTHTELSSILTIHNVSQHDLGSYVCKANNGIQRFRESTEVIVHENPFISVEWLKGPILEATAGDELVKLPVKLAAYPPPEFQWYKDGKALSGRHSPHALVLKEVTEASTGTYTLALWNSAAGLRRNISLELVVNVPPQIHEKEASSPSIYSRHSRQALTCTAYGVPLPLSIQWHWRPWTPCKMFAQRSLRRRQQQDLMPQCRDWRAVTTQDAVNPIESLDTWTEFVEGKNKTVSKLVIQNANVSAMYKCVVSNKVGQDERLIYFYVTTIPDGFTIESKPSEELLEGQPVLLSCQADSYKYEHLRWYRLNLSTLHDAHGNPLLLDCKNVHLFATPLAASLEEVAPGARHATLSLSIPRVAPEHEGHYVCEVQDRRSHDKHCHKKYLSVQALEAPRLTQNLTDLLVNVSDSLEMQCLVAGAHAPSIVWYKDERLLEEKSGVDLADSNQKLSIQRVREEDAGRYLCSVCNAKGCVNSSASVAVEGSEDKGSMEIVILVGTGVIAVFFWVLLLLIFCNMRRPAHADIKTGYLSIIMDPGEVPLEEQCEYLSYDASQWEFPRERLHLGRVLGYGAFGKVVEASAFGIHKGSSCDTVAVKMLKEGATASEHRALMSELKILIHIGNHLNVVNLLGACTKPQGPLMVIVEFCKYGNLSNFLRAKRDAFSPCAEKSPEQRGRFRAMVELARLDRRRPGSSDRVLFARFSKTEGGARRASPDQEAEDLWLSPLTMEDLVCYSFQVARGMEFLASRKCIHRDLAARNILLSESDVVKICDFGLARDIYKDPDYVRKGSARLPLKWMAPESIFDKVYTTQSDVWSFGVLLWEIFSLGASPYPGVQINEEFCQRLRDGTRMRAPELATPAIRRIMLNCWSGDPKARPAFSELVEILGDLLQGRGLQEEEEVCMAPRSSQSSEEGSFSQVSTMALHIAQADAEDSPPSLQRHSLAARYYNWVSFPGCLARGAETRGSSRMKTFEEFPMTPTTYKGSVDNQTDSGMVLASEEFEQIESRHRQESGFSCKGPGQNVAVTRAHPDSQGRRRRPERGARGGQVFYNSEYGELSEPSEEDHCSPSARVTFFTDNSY

[9] = tested on: HCT-116; experiment: Inhibition of colony formation in human HCT-116 cells assessed as inhibition of cell proliferation at 1.25 to 5 uM incubated for 14 days by crystal violet staining based microscopic analysis; format: functional; settings: dose 1.25-5 µM, time 14.0 day, DDE = dose-dependent effect
[10] = molecular target: Vascular endothelial growth factor receptor 2 (Homo sapiens) (UniProt P35968); experiment: Inhibition of recombinant human KDR (790 to end residues) using myelin basic protein as substrate incubated for 40 mins in presence of [gamma-33P]-ATP by radiometric based scintillation counter assay
Chain of Vascular endothelial growth factor receptor 2 (Homo sapiens) (P35968 whole entry): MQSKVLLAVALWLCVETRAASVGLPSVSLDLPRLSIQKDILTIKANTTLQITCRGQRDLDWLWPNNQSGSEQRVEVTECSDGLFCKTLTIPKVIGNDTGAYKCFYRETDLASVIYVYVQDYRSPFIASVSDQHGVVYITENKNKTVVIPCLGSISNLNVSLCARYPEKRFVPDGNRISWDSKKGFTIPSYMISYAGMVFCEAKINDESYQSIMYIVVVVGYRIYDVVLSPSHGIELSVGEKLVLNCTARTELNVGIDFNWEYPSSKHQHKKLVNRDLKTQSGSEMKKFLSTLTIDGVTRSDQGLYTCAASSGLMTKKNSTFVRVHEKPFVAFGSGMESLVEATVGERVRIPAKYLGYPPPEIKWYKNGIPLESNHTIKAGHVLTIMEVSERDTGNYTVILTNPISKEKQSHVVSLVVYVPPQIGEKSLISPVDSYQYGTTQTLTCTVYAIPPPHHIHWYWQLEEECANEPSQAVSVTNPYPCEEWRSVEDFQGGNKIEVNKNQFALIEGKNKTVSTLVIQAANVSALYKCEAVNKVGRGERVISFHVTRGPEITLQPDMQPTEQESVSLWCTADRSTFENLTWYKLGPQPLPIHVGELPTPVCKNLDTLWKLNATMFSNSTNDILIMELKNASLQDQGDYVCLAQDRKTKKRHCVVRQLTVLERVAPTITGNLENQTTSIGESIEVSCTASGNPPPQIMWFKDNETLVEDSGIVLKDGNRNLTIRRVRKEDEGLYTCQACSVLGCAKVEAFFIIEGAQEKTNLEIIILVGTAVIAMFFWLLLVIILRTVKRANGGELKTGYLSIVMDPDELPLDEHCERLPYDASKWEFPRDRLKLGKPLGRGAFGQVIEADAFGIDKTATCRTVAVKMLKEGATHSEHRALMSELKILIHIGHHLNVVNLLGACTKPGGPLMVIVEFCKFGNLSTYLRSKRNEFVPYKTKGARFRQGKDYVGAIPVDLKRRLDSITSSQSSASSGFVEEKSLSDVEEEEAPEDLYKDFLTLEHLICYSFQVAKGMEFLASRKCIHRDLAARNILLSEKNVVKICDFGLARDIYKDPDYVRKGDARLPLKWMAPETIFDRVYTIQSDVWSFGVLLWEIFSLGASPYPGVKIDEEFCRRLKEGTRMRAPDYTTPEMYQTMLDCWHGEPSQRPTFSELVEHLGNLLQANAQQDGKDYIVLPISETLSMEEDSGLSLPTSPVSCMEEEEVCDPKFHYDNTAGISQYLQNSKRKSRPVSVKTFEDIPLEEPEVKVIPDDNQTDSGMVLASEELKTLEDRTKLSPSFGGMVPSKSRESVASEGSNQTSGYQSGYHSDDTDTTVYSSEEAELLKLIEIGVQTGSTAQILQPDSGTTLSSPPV

Chain of TRAF2 and NCK-interacting protein kinase (Q9UKE5 whole entry, the tested form may be a part): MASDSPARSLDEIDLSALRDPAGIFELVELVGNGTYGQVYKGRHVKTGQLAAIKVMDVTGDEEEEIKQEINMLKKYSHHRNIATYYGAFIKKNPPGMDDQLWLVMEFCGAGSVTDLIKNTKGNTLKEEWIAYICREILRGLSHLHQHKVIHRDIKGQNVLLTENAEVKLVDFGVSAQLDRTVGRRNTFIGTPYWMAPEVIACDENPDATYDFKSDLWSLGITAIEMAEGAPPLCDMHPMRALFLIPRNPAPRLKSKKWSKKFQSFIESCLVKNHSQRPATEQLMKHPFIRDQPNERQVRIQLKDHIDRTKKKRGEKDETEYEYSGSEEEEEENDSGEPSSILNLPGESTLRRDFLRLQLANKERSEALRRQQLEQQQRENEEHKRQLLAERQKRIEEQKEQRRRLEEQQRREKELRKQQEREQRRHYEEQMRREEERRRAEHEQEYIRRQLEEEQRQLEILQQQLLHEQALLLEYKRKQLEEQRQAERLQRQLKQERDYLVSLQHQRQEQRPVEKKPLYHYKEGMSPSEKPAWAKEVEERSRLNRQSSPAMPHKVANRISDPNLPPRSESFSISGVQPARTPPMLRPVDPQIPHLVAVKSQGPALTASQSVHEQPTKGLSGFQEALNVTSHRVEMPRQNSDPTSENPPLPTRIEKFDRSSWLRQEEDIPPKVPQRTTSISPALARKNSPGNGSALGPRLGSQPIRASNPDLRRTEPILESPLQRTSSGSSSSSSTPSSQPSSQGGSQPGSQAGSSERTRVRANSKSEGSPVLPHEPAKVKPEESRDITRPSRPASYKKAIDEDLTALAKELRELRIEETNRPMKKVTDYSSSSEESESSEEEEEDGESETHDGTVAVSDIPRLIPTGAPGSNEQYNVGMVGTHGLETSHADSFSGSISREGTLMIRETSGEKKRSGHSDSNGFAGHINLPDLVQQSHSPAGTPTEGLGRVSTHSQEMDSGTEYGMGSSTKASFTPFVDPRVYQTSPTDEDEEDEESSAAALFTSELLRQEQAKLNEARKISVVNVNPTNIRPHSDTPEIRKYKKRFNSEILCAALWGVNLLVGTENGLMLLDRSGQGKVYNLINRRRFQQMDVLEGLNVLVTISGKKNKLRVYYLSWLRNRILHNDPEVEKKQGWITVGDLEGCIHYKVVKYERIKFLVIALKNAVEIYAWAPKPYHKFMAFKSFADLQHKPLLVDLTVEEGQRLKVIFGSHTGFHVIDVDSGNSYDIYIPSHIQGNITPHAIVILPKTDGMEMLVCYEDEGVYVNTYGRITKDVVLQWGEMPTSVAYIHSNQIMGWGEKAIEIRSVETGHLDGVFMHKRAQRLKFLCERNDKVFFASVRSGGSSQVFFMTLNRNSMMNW

| IC50 [1] [µM] | IC50 [2] [µM] | Structure (SMILES) | other results |
| --- | --- | --- | --- |
| > 10 | – | COc1cccc(Cn2c(=O)oc3cc(-c4ccc5[nH]c(C(=O)NC6CC6)cc5c4)ccc32)c1 | – |
| 0.228 | 11.8 | O=c1oc2cc(-c3c[nH]c4ncccc34)ccc2n1Cc1ccc(F)cc1 | – |
| 0.265 | > 100 | COc1cccc(Cn2c(=O)oc3cc(-c4ccc5c(c4)CCN5)ccc32)c1 | – |
| > 10 | – | COc1cccc(Cn2c(=O)oc3cc(-c4cnc(C#N)c(C)c4)ccc32)c1 | – |
| 0.412 | 7.44 | COc1cccc(Cn2c(=O)oc3cc(-c4ccc(N)nc4)ccc32)c1 | – |
| > 10 | – | COc1cccc(Cn2c(=O)oc3cc(-c4cnc5cc[nH]c5c4)ccc32)c1 | – |
| 0.356 | 5.12 | Cc1cccc(Cn2c(=O)oc3cc(-c4cnc5[nH]ccc5c4)ccc32)c1 | – |
| – | 0.403 | O[C@H]1CC[C@@H](Oc2cccc3cnc(Nc4ccc5nc[nH]c5c4)nc23)CC1 | – |
| 1.16 | – | COc1cccc(Cn2c(=O)oc3cc(-c4ccc5[nH]ccc5c4)ccc32)c1 | – |
| 2.84 | – | O=c1oc2cc(-c3cnc4[nH]ccc4c3)ccc2n1Cc1cccc(C(F)(F)F)c1 | – |
| 2.44 | – | O=c1oc2cc(-c3ccc4ncnn4c3)ccc2n1Cc1ccc(F)cc1 | – |
| 4.44 | – | O=c1oc2cc(-c3ccn4ncnc4c3)ccc2n1Cc1ccc(F)cc1 | – |
| > 10 | – | O=c1oc2cc(-c3cnc4ccnn4c3)ccc2n1Cc1ccc(F)cc1 | – |
| 9 | – | COc1cccc(Cn2c(=O)oc3cc(-c4ccnc5[nH]ccc45)ccc32)c1 | – |
| 0.05 | 5 | COc1cccc(Cn2c(=O)oc3cc(-c4cnc5[nH]ccc5c4)ccc32)c1 | Activity [3]: Dde; Activity [4]: Active; Activity [5]: Dde; inhibition [6]: Active; Activity [7]: Active; inhibition [8]: > 80%; inhibition [9]: Dde; inhibition [10]: > 80% |
| > 10 | – | N#Cc1cccc(Cn2c(=O)oc3cc(-c4cnc5[nH]ccc5c4)ccc32)c1 | – |
| 0.61 | 36.4 | COc1cc(-c2ccc3c(c2)oc(=O)n3Cc2ccc(F)cc2)cnc1N | – |
| 0.234 | 16.5 | Nc1ccc(-c2ccc3c(c2)oc(=O)n3Cc2ccc(F)cc2)cn1 | – |
| 4.08 | – | O=c1oc2cc(-c3cnc4[nH]ccc4n3)ccc2n1Cc1ccc(F)cc1 | – |
| 3.99 | – | COc1cccc(Cn2c(=O)oc3cc(-c4cccnc4)ccc32)c1 | – |

| IC50 [1] [µM] | IC50 [2] [µM] | Structure (SMILES) | other results |
| --- | --- | --- | --- |
| 0.11 | 5.99 | O=c1oc2cc(-c3cnc4[nH]ccc4c3)ccc2n1Cc1ccc(F)cc1 | – |
| 0.289 | 7.06 | O=c1oc2cc(-c3cnc4[nH]ccc4c3)ccc2n1Cc1cccc(OC(F)(F)F)c1 | – |
| 0.09 | 5.92 | O=c1oc2cc(-c3cnc4[nH]ccc4c3)ccc2n1Cc1cccc(F)c1 | – |
| > 10 | – | O=c1oc2cc(-c3ccc4scnc4c3)ccc2n1Cc1ccc(F)cc1 | – |
| 0.663 | > 100 | Nc1ncnn2c(-c3ccc4c(c3)oc(=O)n4Cc3ccc(F)cc3)ccc12 | – |
| 1.05 | – | O=c1oc2cc(-c3cnc4[nH]ccc4c3)ccc2n1Cc1ccccc1F | – |
| > 10 | – | O=c1cnc2cc(-c3ccc4c(c3)oc(=O)n4Cc3ccc(F)cc3)ccc2[nH]1 | – |
| > 10 | – | O=c1oc2cc(-c3cnc4cccnn34)ccc2n1Cc1ccc(F)cc1 | – |
| 1.26 | – | O=c1oc2cc(-c3ccc4[nH]ccc4c3)ccc2n1Cc1ccc(F)cc1 | – |
| 0.719 | 8.05 | COc1cc(Cn2c(=O)oc3cc(-c4cnc5[nH]ccc5c4)ccc32)ccc1F | – |
| > 10 | – | O=c1oc2cc(-c3ccc4nncn4c3)ccc2n1Cc1ccc(F)cc1 | – |
| 0.91 | > 100 | O=c1oc2cc(-c3ccnc4[nH]ncc34)ccc2n1Cc1ccc(F)cc1 | – |
| 1.74 | – | O=c1oc2cc(-c3cnc4[nH]ccc4c3)ccc2n1Cc1cccc(OC(F)F)c1 | – |
| 0.156 | 8.25 | N#Cc1cc(-c2ccc3c(c2)oc(=O)n3Cc2ccc(F)cc2)cnc1N | – |
| > 10 | – | O=c1oc2cc(-c3cnc4cnccn34)ccc2n1Cc1ccc(F)cc1 | – |
| 3.98 | – | COc1cccc(Cn2c(=O)oc3cc(-c4cnc5[nH]ccc5n4)ccc32)c1 | – |
| > 10 | – | O=c1oc2cc(-c3cnc4ncccn34)ccc2n1Cc1ccc(F)cc1 | – |
| 5.61 | – | COc1cccc(Cn2c(=O)oc3cc(-c4cncnc4)ccc32)c1 | – |
| > 10 | – | COc1cccc(Cn2c(=O)oc3cc(-c4ccc5[nH]cc(C(=O)NC6CC6)c5c4)ccc32)c1 | – |

— ChEMBL document CHEMBL5143674, “Discovery of benzo[d]oxazol-2(3H)-one derivatives as a new class of TNIK inhibitors for the treatment of colorectal cancer” (Bioorg Med Chem Lett, 2022)
